This note sets out measurements from publication PMC12807480, “Protectin DX resolves fracture-induced postoperative pain in mice via neuronal signaling and GPR37-activated macrophage efferocytosis” (The Journal of Clinical Investigation, 2026).

The target in assay [1] is T1, GPR37 (Homo sapiens, UniProt O15354).
T1 sequence (O15354 27-613): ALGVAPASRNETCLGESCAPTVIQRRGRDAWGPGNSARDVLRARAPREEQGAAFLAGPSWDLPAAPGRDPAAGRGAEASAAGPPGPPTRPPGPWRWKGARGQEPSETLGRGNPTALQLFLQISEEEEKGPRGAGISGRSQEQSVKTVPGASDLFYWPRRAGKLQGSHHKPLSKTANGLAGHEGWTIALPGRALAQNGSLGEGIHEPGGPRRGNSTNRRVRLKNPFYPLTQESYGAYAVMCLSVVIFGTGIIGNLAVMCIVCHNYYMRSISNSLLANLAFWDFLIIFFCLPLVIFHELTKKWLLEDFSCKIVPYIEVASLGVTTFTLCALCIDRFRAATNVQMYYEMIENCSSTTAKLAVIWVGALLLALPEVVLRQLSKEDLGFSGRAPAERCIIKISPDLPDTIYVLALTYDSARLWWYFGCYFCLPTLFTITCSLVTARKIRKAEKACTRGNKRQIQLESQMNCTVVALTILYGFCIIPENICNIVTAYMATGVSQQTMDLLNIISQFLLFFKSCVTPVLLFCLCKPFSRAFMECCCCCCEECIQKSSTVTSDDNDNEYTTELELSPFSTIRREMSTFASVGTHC
The assay is described as follows: Ca2+ imaging in HEK293T cells expressing human GPR37 versus mock; lipid overlay dot blot with GPR37-HEK293T lysate. Format: cell-based.

In assay [2] the target is T1, GPR37. The assay is described as follows: lipid overlay dot blot: ligand-coated PVDF membrane with lysates of HEK293T cells with and without GPR37.

What is called EC50 is the concentration at which the effect is half-maximal. Low readings indicate higher potency in that assay, high ones lower potency in that assay. Turning to `CC/C=C\C[C@H](O)/C=C/C=C\C=C\[C@@H](O)C/C=C\C/C=C\CCC(=O)O` [PDX, Protectin DX], on GPR37 [1], the EC50 was determined as 23.5 nM.

For `CC/C=C\C[C@H](O)\C=C/C=C/C=C/[C@H](O)C/C=C\C/C=C\CCC(=O)O` [NPD1, neuroprotectin D1], the “lipid overlay dot blot: ligand-coated PVDF membrane with lysates of HEK293T cell” value at GPR37 [2] was “Lipid overlay assays further confirmed direct binding of PDX and NPD1 to GPR37”.
